# ChEMBL document CHEMBL3886288, “Thieno[3,2-D]pyrimidine derivatives having inhibitory activity for protein kinases” (2015)
# Experiments:
# [1] = biological target: RAF proto-oncogene serine/threonine-protein kinase (Homo sapiens, UniProt P04049, Y340D/Y341D); experiment: (§1) Kinase Activity: The compounds prepared in Examples were tested for inhibitory activity against three subtypes of RAF, i.e., RAF1 Y340D Y341D (C-RAF), B-RAF normal type and B-RAF^V600E using Kinase Profiling Service (Invitrogen, U.S.) according to the manufacturer's instructions. The levels of enzymatic inhibition of the compounds were calculated as percent inhibition at various concentrations.
# RAF proto-oncogene serine/threonine-protein kinase, sequence (P04049 whole entry Y340D/Y341D): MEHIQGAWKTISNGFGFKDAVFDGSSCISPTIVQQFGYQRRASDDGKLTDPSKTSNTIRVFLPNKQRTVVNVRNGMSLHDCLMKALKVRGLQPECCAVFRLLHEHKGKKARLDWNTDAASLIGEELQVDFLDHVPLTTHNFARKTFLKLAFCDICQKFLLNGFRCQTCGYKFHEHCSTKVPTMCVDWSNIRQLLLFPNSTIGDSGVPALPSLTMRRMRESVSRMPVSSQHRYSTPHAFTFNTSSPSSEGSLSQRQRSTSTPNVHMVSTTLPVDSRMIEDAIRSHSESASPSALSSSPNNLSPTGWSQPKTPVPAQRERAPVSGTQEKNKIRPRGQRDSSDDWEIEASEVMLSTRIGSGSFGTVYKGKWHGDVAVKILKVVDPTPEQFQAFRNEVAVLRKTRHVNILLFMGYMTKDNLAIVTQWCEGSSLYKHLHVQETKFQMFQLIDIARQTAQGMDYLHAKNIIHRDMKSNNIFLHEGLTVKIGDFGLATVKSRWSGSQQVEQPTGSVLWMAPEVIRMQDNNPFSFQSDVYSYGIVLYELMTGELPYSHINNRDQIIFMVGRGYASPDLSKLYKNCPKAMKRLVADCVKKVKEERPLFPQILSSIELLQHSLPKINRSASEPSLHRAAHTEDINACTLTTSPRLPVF
# [2] = biological target: Serine/threonine-protein kinase B-raf (Homo sapiens, UniProt P15056); experiment: as §1
# Serine/threonine-protein kinase B-raf (Homo sapiens, UniProt P15056), sequence (P15056 whole entry): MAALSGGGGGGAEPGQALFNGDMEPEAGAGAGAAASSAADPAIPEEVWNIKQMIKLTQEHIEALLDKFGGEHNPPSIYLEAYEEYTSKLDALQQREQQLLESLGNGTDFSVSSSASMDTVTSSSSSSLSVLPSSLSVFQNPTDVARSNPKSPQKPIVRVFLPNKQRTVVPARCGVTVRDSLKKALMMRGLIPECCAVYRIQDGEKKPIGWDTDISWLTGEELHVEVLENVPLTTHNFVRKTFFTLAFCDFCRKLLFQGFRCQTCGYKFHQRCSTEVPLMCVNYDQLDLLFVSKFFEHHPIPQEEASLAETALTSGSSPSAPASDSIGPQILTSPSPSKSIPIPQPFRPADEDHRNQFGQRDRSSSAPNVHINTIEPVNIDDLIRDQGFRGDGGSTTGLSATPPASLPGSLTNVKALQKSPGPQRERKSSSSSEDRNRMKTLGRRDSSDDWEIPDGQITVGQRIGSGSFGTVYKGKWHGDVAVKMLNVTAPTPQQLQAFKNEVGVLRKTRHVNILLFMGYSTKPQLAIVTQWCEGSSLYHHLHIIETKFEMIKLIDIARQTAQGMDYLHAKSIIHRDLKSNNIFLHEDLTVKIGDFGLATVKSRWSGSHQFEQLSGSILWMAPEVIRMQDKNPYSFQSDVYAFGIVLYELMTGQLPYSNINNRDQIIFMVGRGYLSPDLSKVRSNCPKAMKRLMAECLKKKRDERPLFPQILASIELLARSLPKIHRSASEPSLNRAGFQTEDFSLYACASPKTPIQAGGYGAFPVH
# [3] = biological target: Serine/threonine-protein kinase B-raf (Homo sapiens, UniProt P15056, V600E); experiment: as §1
# Serine/threonine-protein kinase B-raf (Homo sapiens, UniProt P15056, V600E), sequence (P15056 2-766 V600E limits assumed): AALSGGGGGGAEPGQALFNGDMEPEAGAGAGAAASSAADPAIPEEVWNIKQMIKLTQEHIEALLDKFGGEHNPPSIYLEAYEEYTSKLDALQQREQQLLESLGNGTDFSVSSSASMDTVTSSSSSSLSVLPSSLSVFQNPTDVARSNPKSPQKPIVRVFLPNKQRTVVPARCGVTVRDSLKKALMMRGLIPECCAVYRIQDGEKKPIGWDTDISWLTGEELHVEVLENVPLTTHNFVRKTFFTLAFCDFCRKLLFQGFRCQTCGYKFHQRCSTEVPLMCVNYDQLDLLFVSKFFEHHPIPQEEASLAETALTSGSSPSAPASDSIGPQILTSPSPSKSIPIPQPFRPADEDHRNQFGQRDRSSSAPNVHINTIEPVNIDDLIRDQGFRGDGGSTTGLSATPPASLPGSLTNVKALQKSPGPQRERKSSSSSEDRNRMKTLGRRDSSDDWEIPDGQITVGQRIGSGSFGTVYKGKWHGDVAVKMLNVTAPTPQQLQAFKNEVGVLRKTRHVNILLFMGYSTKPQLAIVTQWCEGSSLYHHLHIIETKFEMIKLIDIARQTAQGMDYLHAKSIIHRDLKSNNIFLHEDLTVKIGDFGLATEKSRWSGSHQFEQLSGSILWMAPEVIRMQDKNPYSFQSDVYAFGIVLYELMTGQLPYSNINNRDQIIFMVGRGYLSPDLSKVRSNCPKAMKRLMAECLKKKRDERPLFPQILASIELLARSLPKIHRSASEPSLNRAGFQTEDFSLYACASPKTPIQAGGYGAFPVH
# [4] = biological target: Macrophage colony-stimulating factor 1 receptor (Homo sapiens, UniProt P07333); experiment: Kinase Activity: The compounds prepared in Examples were tested for inhibitory activity against FMS, DDR1 and DDR2 kinases using Kinase Screening and Profiling Service (Invitrogen, U.S.).
# Macrophage colony-stimulating factor 1 receptor, sequence (P07333 whole entry): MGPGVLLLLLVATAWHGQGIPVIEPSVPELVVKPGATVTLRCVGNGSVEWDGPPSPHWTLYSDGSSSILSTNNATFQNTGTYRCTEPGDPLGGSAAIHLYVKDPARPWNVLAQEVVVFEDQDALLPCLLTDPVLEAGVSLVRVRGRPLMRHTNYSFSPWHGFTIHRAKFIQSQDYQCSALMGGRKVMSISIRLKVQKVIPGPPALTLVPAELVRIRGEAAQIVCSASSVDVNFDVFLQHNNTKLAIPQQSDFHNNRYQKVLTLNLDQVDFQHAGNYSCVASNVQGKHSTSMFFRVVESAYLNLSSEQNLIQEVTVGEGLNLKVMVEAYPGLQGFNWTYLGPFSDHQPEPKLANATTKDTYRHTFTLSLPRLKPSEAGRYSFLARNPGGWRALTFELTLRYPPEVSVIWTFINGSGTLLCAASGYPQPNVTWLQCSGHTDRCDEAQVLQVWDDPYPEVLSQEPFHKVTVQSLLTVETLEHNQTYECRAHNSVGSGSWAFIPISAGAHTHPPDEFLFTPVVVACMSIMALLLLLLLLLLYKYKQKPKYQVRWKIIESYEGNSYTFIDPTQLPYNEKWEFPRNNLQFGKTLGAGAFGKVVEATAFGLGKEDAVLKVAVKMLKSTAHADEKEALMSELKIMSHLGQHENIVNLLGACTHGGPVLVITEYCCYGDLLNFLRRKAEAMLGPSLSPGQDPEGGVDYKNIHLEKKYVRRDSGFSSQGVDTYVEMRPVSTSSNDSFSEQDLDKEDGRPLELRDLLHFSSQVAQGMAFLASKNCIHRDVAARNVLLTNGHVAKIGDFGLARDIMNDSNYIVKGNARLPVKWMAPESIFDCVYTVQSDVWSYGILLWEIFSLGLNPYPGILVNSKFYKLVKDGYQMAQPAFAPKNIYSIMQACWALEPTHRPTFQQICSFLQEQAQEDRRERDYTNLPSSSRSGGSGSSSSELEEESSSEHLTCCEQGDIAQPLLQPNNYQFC
smiles,measurement,setting,value
Cc1ccc2c(Nc3cccc(Cl)c3)nccc2c1NC(=O)c1csc2c(N)ncnc12,IC50,[1],0.005 µM
same,IC50,[2],0.066 µM
same,IC50,[3],0.009 µM
same,IC50,[4],0.057 µM
